The subject of series [1] is CB2 receptor. The following applies: intraperitoneal administration; cited from earlier work.
Series [2] relates to human-derived keratinocyte, HaCaT. Description: IL-1b release from HaCaT under poly (I:C)-induced allergic contact dermatitis conditions (ELISA). In kind it is cell-based. Particulars: 10 μM, poly (I:C) 15 ng/ml, 24 hours. How it is done: First, a human-derived keratinocyte, HaCaT, was dispensed in a 24-well plate together with a Dulbecco's modified eagle's medium (DMEM) containing 10% fetal bovine serum (FBS), and cultured at 37° C. under 5% CO2 culture conditions for 24 hours. Afterwards, while inducing allergic contact dermatitis conditions to the HaCat with 15 ng/ml of poly (I:C), each of Example 1 (hydroxy-α-sanshool) and Example 2 (hydroxy-γ-sanshool), which were each dissolved in dimethyl sulfoxide (DMSO), were treated at 10 μM and dissolved in the medium. After 24 hours, each medium was collected, and IL-1b ELISA kit (R&D systems) was used to measure an amount of cytokine IL-1b according to a manufacturer's method.

Series [3] deals with normal human epidermal cells, keratinocyte. Kind of series: β-endorphin secretion from normal human epidermal keratinocytes (β-endorphin EIA kit). In kind it is cell-based. The following applies: for amount of β-endorphin secreted from keratinocyte: 10 μM, six hours, compared to control group (FIG. 1, FIG. 2); for β-endorphin production effect: six hours (FIG. 3). Here is the method:
First, normal human epidermal cells, keratinocyte (Gibco), were cultured from a 6-well plate to a confluence point at 37° C. under 5% CO2 culture conditions. In an embodiment of the present disclosure, a keratinocyte-SFM (Gibco) medium was treated with 10 μM of each of hydroxy-α-sanshool (CHEMFACES®; Example 1), hydroxy-γ-sanshool (Chengdu Biopurify Phytochemicals Ltd.; Example 2), hydroxy-β-sanshool (Chengdu Biopurify Phytochemicals Ltd.; Example 3), hydroxy-ε-sanshool (Chengdu Biopurify Phytochemicals Ltd.; Example 4), cannabidiol (CBD) (Sigma-Aldrich®; Comparative Example 1), honokiol (Sigma-Aldrich®; Comparative Example 2), magnolol (Sigma-Aldrich®; Comparative Example 3), and palmitoylethanolamide (PEA) (Sigma-Aldrich®; Comparative Example 4), which are known as CB2 agonists as Comparative Examples, and cultured at 37° C. for six hours under 5% CO2 culture conditions. Afterwards, each medium was collected, and a β-endorphin EIA kit (EK-022-14, Phoenix pharmaceuticals, Belmont, Calif.) was used to quantify an amount of β-endorphin secreted from keratinocyte in each medium. Student t-test was used for statistical significance between specimens, and when a value of p-value is less than or equal to 0.05, it was analyzed as statistically significant. (*p<0.05, **p<0.01, ***p<0.001)
First, normal human epidermal cells, keratinocyte (Gibco), were cultured from a 6-well plate to a confluence point at 37° C. under 5% CO2 culture conditions. […] Afterwards, each medium was collected, and a β-endorphin EIA kit (EK-022-14, Phoenix pharmaceuticals, Belmont, Calif.) was used to quantify an amount of β-endorphin secreted from keratinocyte in each medium. Student t-test was used for statistical significance between specimens, and when a value of p-value is less than or equal to 0.05, it was analyzed as statistically significant. (*p<0.05, **p<0.01, ***p<0.001)

For series [4] the following is noted: sanshool-containing drug ingested; cited from earlier work.

As for `CN1CCCCC1Cn1cc(C(=O)c2cc([N+](=O)[O-])ccc2I)c2ccccc21` (centres unmarked) [AM1241], the endorphin secretion entry in series [1] was “had an effect on inducing endorphin secretion”.
As to `C/C=C/C=C/C=C\CC/C=C/C(=O)NCC(C)(C)O` [Example 1, hydroxy-α-sanshool], in series [2], the IL-1b came out at 11.29 pg/mL.
Same read-out and setting: the result for `C/C=C/C=C/C=C\CC/C=C/C=C/C(=O)NCC(C)(C)O` [Example 2, hydroxy-γ-sanshool] reads 11.2 pg/mL.
Take `C=CCc1ccc(O)c(-c2ccc(O)c(CC=C)c2)c1` [honokiol, reference compound]: the “amount of β-endorphin secreted from keratinocyte” value in series [3] was “further decrease in an amount of β-endorphin secretion compared to a control group”.
Regarding `C=CCc1ccc(O)c(-c2cc(CC=C)ccc2O)c1` [magnolol, reference compound], the “amount of β-endorphin secreted from keratinocyte” value in series [3] is reported as “further decrease in an amount of β-endorphin secretion compared to a control group”.
Consider sanshool, for which, in series [4], the presence in plasma result is listed as “remained in plasma”. Moreover, the β-endorphin production effect result is recorded as “β-endorphin production effect was not shown” in series [3] (0.00006 wt %) and “production of β-endorphin was induced” in series [3] (0.006 wt % as printed).

Values taken from US20220241168A1, “COMPOSITION FOR STIMULATING BETA-ENDORPHIN PRODUCTION COMPRISING SANSHOOL” (AMOREPACIFIC CORPORATION, priority 2021, published 2022).
